Measured values published in US6489307B1, “Antisense compositions targeted to β1-adrenoceptor-specific mRNA and methods of use” (University of Florida, priority 1998, dated 2002).
“Also recorded” adds a separate entry of the source.

Assays:
[1] = system: isolated perfused SHR hearts; assay: Isolated perfused SHR hearts (Langendorff), response to isoproterenol; format: in vivo, rat (SHR); conditions: 48 hr after 1 mg/kg; vs inverted ODN
Method: 48 hr after injection of 1 mg/kg β1-AS-ODN (n=9) or inverted ODN (n=6), SHRs were anesthetized and killed. Hearts were quickly removed and perfused via the aorta with oxygenated Krebs buffer (118 mmol/L NaCl, 18.75 mmol/L NaHCO3 1.2 mmol/L KH2PO4, 4.7 mmol/L KCl, 1.2 mmol/L MgSO4, 1.25 mmol/L CaCl2, 11.1 mmol/L glucose, and 0.01 mmol/L EDTA) at a constant flow of 7.0 mL/min. at 36° C. Coronary perfusion pressure was measured via a catheter placed proximal to the aorta and connected to a pressure transducer (Gould Staham P23ID, Eastlake, Ohio). A latex balloon filled with water and connected to the pressure transducer was inserted into the left ventricle through the left atrium to measure left ventricular end-diastolic pressure (LVEDP), left ventricular systolic pressure (LVSP), and developed left ventricular pressure (dLVP) (dLVP=LVSP−LVEDP). LVEDP during equilibration was set at 5 to 7 mm Hg. Coronary perfusion pressure, LVEDP, and LVSP were recorded continuously on a 4-channel recorder (Astro-Med, West Warwick, R.I.). […]
Forty-eight hr after injection of 1 mg/kg β1-AS-ODN (n=9) or inverted-ODN (n=6), SHR were anesthetized and sacrificed. […] Coronary perfusion pressure (CPP) was measured via a catheter placed proximal to the aorta and connected to a pressure transducer (Gould Statham P23ID). […] CPP, LVEDP and LVSP were continuously recorded on a 4-channel recorder (Astro-Med). […]

SHRs = assay: Telemetric monitoring of conscious SHRs during dobutamine infusion; format: in vivo, rat (SHR)
Method: Two days after catherization of the jugular vein, control values were taken and 1 mg/kg β1-AS-ODN was injected. 48 hr later, rats were tested for the effect of β1-AS-ODN. The rats were allowed to recover until all the cardiovascular parameters returned to control values. […] For β1-stimulation, SHRs were infused with dobutamine (β1-selective agonist) through a jugular vein catheter at 5, 10, 20, and 40 μg·kg^−1·min.^−1. Each dose was given for 5 min. continuously and at 1-hr intervals until all the cardiovascular parameters returned to baseline values so as to avoid the effect of tachyphylaxis. BP and HR were sampled every 1 min. dP/dtmax was calculated from the slope of the rising pulse-pressure curve and determined every 1 min. The difference between values at each dose and baseline was denoted as Δ.
Two days after catheterization of jugular vein, control values were taken and 1 mg/kg β1-AS-ODN was injected. Forty-eight hr later, rats were tested for the effect of β1-AS-ODN. The rats were allowed to recover until all the cardiovascular parameters returned to control values. […] For β1-stimulation, SHR were infused with dobutamine (β1-selective agonist) through jugular vein catheter at 5, 10, 20, 40 μg/kg/min. Each dose was given for 5 min continuously and at 1-hr intervals until all cardiovascular parameters returned to baseline so as to avoid the effect of tachyphylaxis. BP and HR were sampled every min. dP/dtmax was calculated from the slope of the rising pulse pressure curve and determined every min. The difference between values at each dose and baseline was denoted as Δ.

β1-ARs = molecular target: T1, β1-ARs (Rattus norvegicus, UniProt P18090); conditions: even after 18 days, single i.v. injection (Zhang et al., 1999); cited from earlier work
T1 construct: membranes were prepared from heart ventricles as previously described; from tissue; host or cells: heart ventricles of SHR
T1 sequence (P18090 whole entry): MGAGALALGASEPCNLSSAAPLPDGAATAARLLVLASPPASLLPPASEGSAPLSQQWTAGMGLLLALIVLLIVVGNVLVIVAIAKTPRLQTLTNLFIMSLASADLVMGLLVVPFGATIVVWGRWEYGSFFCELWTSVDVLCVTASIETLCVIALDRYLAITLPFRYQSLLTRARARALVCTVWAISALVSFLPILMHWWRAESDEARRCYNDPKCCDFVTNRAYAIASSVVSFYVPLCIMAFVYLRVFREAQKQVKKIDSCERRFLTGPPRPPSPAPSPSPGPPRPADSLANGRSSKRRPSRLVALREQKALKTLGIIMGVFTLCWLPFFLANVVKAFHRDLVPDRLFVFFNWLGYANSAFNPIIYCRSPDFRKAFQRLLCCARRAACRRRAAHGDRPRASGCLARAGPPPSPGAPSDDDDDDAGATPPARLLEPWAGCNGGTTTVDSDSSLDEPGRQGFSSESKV

5′-CCGCGCCCATGCCGA-3′ (phosphorothioate backbone, further chemistry not given here) [β1-AS-ODN, 15-mer antisense ODN targeted to the AUG start codon of rat β1-AR mRNA]
HR response to ISO [1]: not significantly decreased | dLVP-ISO dose-response curve (positive inotropic effect of ISO) [1]: significantly shifted downward; also recorded: significantly shifted down | basal (resting) HR (SHRs; 1 mg/kg, control 365±8): 365±12 bpm | basal dP/dtmax (SHRs; 1 mg/kg, control 2937±277): 2922±249 mm Hg/s | resting dP/dtmax (SHRs; 1 mg/kg, control 2937±277): 2922±249 mmHg/sec | change in HR in the face of dobutamine (SHRs; 48 hr after 1 mg/kg): not significantly reduced | increase in dP/dtmax in the face of dobutamine (SHRs; 48 hr after 1 mg/kg): significantly (P<0.02) dampened | decrease in ventricular β1-AR density (β1-ARs): 30-50%
